In patent US8192962B2, “Processes for detecting toxic substances” (Daikin Industries, Ltd., priority 2001, dated 2012):

System: Detoxification protein genes
Test: DNA chip mRNA expression in yeast, detoxification protein genes (Table 8)
Type: cell-based, Saccharomyces cerevisiae S288C
Procedure, shortened: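 In this screen, yeast in logarithmic growth are challenged for two hours with a toxic substance at a non-lethal inhibitory concentration. Their mRNA, converted to Cy3- or Cy5-labeled cDNA, hybridizes at 65° C. to a chip spanning every yeast gene, and expression is expressed as a ratio to untreated cells.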

**Q.** With `CN(C)C(=S)SSC(=S)N(C)C` [(10), Tetramethylthiuram disulfide] as the molecule, how does the “The level of expressed mRNA in the presence of chemical substance/The level of expressed mRNA in the absence of chemical substance” value (yeast gene YBL064C) read?
**A.** 3.8

**Q.** And the “The level of expressed mRNA in the presence of chemical substance/The level of expressed mRNA in the absence of chemical substance” value (yeast gene YBR008C)?
**A.** 21.1

**Q.** What about the “The level of expressed mRNA in the presence of chemical substance/The level of expressed mRNA in the absence of chemical substance” value (yeast gene YBR145W) of the same molecule?
**A.** 1.1

**Q.** And the “The level of expressed mRNA in the presence of chemical substance/The level of expressed mRNA in the absence of chemical substance” value (yeast gene YBR244W)?
**A.** 3.0

**Q.** And the “The level of expressed mRNA in the presence of chemical substance/The level of expressed mRNA in the absence of chemical substance” value (yeast gene YBR293W)?
**A.** 2.4

**Q.** What about the “The level of expressed mRNA in the presence of chemical substance/The level of expressed mRNA in the absence of chemical substance” value (yeast gene YCL035C) of the same molecule?
**A.** 2.3

**Q.** What about the “The level of expressed mRNA in the presence of chemical substance/The level of expressed mRNA in the absence of chemical substance” value (yeast gene YCL069W) of the same molecule?
**A.** 6.9

**Q.** And the “The level of expressed mRNA in the presence of chemical substance/The level of expressed mRNA in the absence of chemical substance” value (yeast gene YCR083W)?
**A.** 1.8

**Q.** What about the “The level of expressed mRNA in the presence of chemical substance/The level of expressed mRNA in the absence of chemical substance” value (yeast gene YDL100C) of the same molecule?
**A.** 3.2

**Q.** What about the “The level of expressed mRNA in the presence of chemical substance/The level of expressed mRNA in the absence of chemical substance” value (yeast gene YDL168W) of the same molecule?
**A.** 4.7

**Q.** And the “The level of expressed mRNA in the presence of chemical substance/The level of expressed mRNA in the absence of chemical substance” value (yeast gene YDR256C)?
**A.** 2.0

**Q.** And the “The level of expressed mRNA in the presence of chemical substance/The level of expressed mRNA in the absence of chemical substance” value (yeast gene YDR453C)?
**A.** 6.1

**Q.** What about the “The level of expressed mRNA in the presence of chemical substance/The level of expressed mRNA in the absence of chemical substance” value (yeast gene YDR513W) of the same molecule?
**A.** 3.1

**Q.** What about the “The level of expressed mRNA in the presence of chemical substance/The level of expressed mRNA in the absence of chemical substance” value (yeast gene YDR538W) of the same molecule?
**A.** 0.8

**Q.** What about the “The level of expressed mRNA in the presence of chemical substance/The level of expressed mRNA in the absence of chemical substance” value (yeast gene YEL027W) of the same molecule?
**A.** 1.1

**Q.** And the “The level of expressed mRNA in the presence of chemical substance/The level of expressed mRNA in the absence of chemical substance” value (yeast gene YEL065W)?
**A.** 4.9

**Q.** What about the “The level of expressed mRNA in the presence of chemical substance/The level of expressed mRNA in the absence of chemical substance” value (yeast gene YER185W) of the same molecule?
**A.** 1.2

**Q.** What about the “The level of expressed mRNA in the presence of chemical substance/The level of expressed mRNA in the absence of chemical substance” value (yeast gene YFL050C) of the same molecule?
**A.** 1.6

**Q.** What about the “The level of expressed mRNA in the presence of chemical substance/The level of expressed mRNA in the absence of chemical substance” value (yeast gene YGL013C) of the same molecule?
**A.** 1.5

**Q.** And the “The level of expressed mRNA in the presence of chemical substance/The level of expressed mRNA in the absence of chemical substance” value (yeast gene YGL254W)?
**A.** 1.8

**Q.** And the “The level of expressed mRNA in the presence of chemical substance/The level of expressed mRNA in the absence of chemical substance” value (yeast gene YGR088W)?
**A.** 3.2

**Q.** And the “The level of expressed mRNA in the presence of chemical substance/The level of expressed mRNA in the absence of chemical substance” value (yeast gene YGR138C)?
**A.** 1.0

**Q.** What about the “The level of expressed mRNA in the presence of chemical substance/The level of expressed mRNA in the absence of chemical substance” value (yeast gene YGR197C) of the same molecule?
**A.** 3.2

**Q.** And the “The level of expressed mRNA in the presence of chemical substance/The level of expressed mRNA in the absence of chemical substance” value (yeast gene YGR209C)?
**A.** 6.3

**Q.** What about the “The level of expressed mRNA in the presence of chemical substance/The level of expressed mRNA in the absence of chemical substance” value (yeast gene YGR224W) of the same molecule?
**A.** 0.9

**Q.** What about the “The level of expressed mRNA in the presence of chemical substance/The level of expressed mRNA in the absence of chemical substance” value (yeast gene YHL040C) of the same molecule?
**A.** 11.3

**Q.** And the “The level of expressed mRNA in the presence of chemical substance/The level of expressed mRNA in the absence of chemical substance” value (yeast gene YHL047C)?
**A.** 11.9

**Q.** And the “The level of expressed mRNA in the presence of chemical substance/The level of expressed mRNA in the absence of chemical substance” value (yeast gene YHR008C)?
**A.** 2.4

**Q.** What about the “The level of expressed mRNA in the presence of chemical substance/The level of expressed mRNA in the absence of chemical substance” value (yeast gene YHR048W) of the same molecule?
**A.** 2.7

**Q.** And the “The level of expressed mRNA in the presence of chemical substance/The level of expressed mRNA in the absence of chemical substance” value (yeast gene YHR053C)?
**A.** 2.9

**Q.** What about the “The level of expressed mRNA in the presence of chemical substance/The level of expressed mRNA in the absence of chemical substance” value (yeast gene YHR055C) of the same molecule?
**A.** 3.3

**Q.** And the “The level of expressed mRNA in the presence of chemical substance/The level of expressed mRNA in the absence of chemical substance” value (yeast gene YIR002C)?
**A.** 1.4

**Q.** And the “The level of expressed mRNA in the presence of chemical substance/The level of expressed mRNA in the absence of chemical substance” value (yeast gene YIR038C)?
**A.** 4.5

**Q.** What about the “The level of expressed mRNA in the presence of chemical substance/The level of expressed mRNA in the absence of chemical substance” value (yeast gene YJL101C) of the same molecule?
**A.** 3.6

**Q.** What about the “The level of expressed mRNA in the presence of chemical substance/The level of expressed mRNA in the absence of chemical substance” value (yeast gene YJR104C) of the same molecule?
**A.** 2.8

**Q.** And the “The level of expressed mRNA in the presence of chemical substance/The level of expressed mRNA in the absence of chemical substance” value (yeast gene YKL026C)?
**A.** 3.0

**Q.** And the “The level of expressed mRNA in the presence of chemical substance/The level of expressed mRNA in the absence of chemical substance” value (yeast gene YKL064W)?
**A.** 1.6

**Q.** And the “The level of expressed mRNA in the presence of chemical substance/The level of expressed mRNA in the absence of chemical substance” value (yeast gene YKR066C)?
**A.** 2.4

**Q.** What about the “The level of expressed mRNA in the presence of chemical substance/The level of expressed mRNA in the absence of chemical substance” value (yeast gene YKR105C) of the same molecule?
**A.** 5.2

**Q.** And the “The level of expressed mRNA in the presence of chemical substance/The level of expressed mRNA in the absence of chemical substance” value (yeast gene YKR106W)?
**A.** 7.4

**Q.** What about the “The level of expressed mRNA in the presence of chemical substance/The level of expressed mRNA in the absence of chemical substance” value (yeast gene YLL028W) of the same molecule?
**A.** 2.3

**Q.** What about the “The level of expressed mRNA in the presence of chemical substance/The level of expressed mRNA in the absence of chemical substance” value (yeast gene YLL057C) of the same molecule?
**A.** 2.9

**Q.** And the “The level of expressed mRNA in the presence of chemical substance/The level of expressed mRNA in the absence of chemical substance” value (yeast gene YLL060C)?
**A.** 23.2

**Q.** And the “The level of expressed mRNA in the presence of chemical substance/The level of expressed mRNA in the absence of chemical substance” value (yeast gene YLR043C)?
**A.** 2.5

**Q.** What about the “The level of expressed mRNA in the presence of chemical substance/The level of expressed mRNA in the absence of chemical substance” value (yeast gene YLR046C) of the same molecule?
**A.** 1.4

**Q.** And the “The level of expressed mRNA in the presence of chemical substance/The level of expressed mRNA in the absence of chemical substance” value (yeast gene YML028W)?
**A.** 1.8

**Q.** What about the “The level of expressed mRNA in the presence of chemical substance/The level of expressed mRNA in the absence of chemical substance” value (yeast gene YML116W) of the same molecule?
**A.** 3.1

**Q.** What about the “The level of expressed mRNA in the presence of chemical substance/The level of expressed mRNA in the absence of chemical substance” value (yeast gene YMR015C) of the same molecule?
**A.** 0.3

**Q.** And the “The level of expressed mRNA in the presence of chemical substance/The level of expressed mRNA in the absence of chemical substance” value (yeast gene YMR038C)?
**A.** 2.6

**Q.** And the “The level of expressed mRNA in the presence of chemical substance/The level of expressed mRNA in the absence of chemical substance” value (yeast gene YNL239W)?
**A.** 6.0

**Q.** And the “The level of expressed mRNA in the presence of chemical substance/The level of expressed mRNA in the absence of chemical substance” value (yeast gene YNL241C)?
**A.** 7.4

**Q.** And the “The level of expressed mRNA in the presence of chemical substance/The level of expressed mRNA in the absence of chemical substance” value (yeast gene YNL259C)?
**A.** 2.1

**Q.** What about the “The level of expressed mRNA in the presence of chemical substance/The level of expressed mRNA in the absence of chemical substance” value (yeast gene YOL158C) of the same molecule?
**A.** 6.1

**Q.** And the “The level of expressed mRNA in the presence of chemical substance/The level of expressed mRNA in the absence of chemical substance” value (yeast gene YOR031W)?
**A.** 1.3

**Q.** And the “The level of expressed mRNA in the presence of chemical substance/The level of expressed mRNA in the absence of chemical substance” value (yeast gene YOR153W)?
**A.** 1.2

**Q.** What about the “The level of expressed mRNA in the presence of chemical substance/The level of expressed mRNA in the absence of chemical substance” value (yeast gene YOR247W) of the same molecule?
**A.** 0.4

**Q.** What about the “The level of expressed mRNA in the presence of chemical substance/The level of expressed mRNA in the absence of chemical substance” value (yeast gene YOR251C) of the same molecule?
**A.** 0.8

**Q.** And the “The level of expressed mRNA in the presence of chemical substance/The level of expressed mRNA in the absence of chemical substance” value (yeast gene YOR273C)?
**A.** 0.5

**Q.** And the “The level of expressed mRNA in the presence of chemical substance/The level of expressed mRNA in the absence of chemical substance” value (yeast gene YPL163C)?
**A.** 0.4

**Q.** What about the “The level of expressed mRNA in the presence of chemical substance/The level of expressed mRNA in the absence of chemical substance” value (yeast gene YPR200C) of the same molecule?
**A.** 3.8
